Results published in patent publication US7465471B2, “Palatability of aquaculture feed” (Novus International, Inc., priority 2003, dated 2008).
Where a name gives a salt, the structure may show the parent alone. Read-outs that look alike come from different tables or passages of the source.

Tests used:
[1] = test system: S. enteritidis; assay: S. enteritidis colony counts in broth (Examples 1-3, 17); conditions: pH 4.5; for log cfu/mL (S. enteritidis colony counts in broth): total 5 g/L, protocol of Example 1; for inhibitory effect on S. enteritidis: 5 g/l, Example 17; for log cfu/mL: Table 24, blends total 5 g/L, control […]
[2] = test system: Salmonella; conditions: for Δ log: Table 11, 90 min 37 C; for Average cfu/g / Average Δ log / Average log: protocol of Example 9; for Average Δ log: versus control
Protocol: Tests were carried out using 1 g feed (crumble ground) with 6% meat and bone meal (“MBM”). […] The acid solutions were added to the feed as indicated below; water (1 mL) and 150 mM HCl (1.8 mL) was added to bring the pH to 4.0. Naldixic Acid resistant Salmonella (provided by Dr. Stan Bailey, USDA/ARS, Athens, Ga.) (initial colony count=40,000 cfu/g) was added, and the feed solutions were incubated at 37 C for 90 min. Each sample was diluted with 6 mL H2O, plated, and counted the following day.

[3] = test system: E. coli (ATCC 25922); assay: E. coli populations in trypticase soy broth with acid:Alimet blends (Example 4); type: cell-based; conditions: Table 7, total 6 g/L, initial 4.97 log cfu/mL
Source text: Blends of organic acid:Alimet® of 2:1 and 5:1 were studied, at a total concentration (organic acid+Alimet®) of 6 g/L.
The pH of the solutions were originally adjusted to pH 5 by addition of HCl and/or NaOH as needed. Activated E. coli culture solutions were transferred to fresh soy broth twice at 24-hour intervals prior to before addition of the organic acid:Alimet® blend. E. coli culture solutions were centrifuged; pellet produced was re-suspended with Butterfield buffer, and the resulting solutions were diluted to approximately 10^7 CFU E. coil/mL.
Bottles were inoculated with 100 μL of prepared bacterial suspension and an organic acid:Alimet® blend. Samples were taken after five and 24 hours of incubation, serially diluted and spread-plated on trypticase soy agar, and incubated at 35° C. for 24 hours.

[4] = test system: Common carp, Cyprinus carpio L.; assay: Feeding preference of common carp, number of bites (Example 25); type: in vivo; conditions: for Bites/10 minutes: test diet vs control diet in same tank
Protocol: Common carp, Cyprinus carpio L. from a commercial fish farm were acquired and sorted to common body weight and length, about 20 g and 8-11 cm, respectively. […] Diets were mixed with adequate water to create a stable feed ball. […] Twenty tanks (45 cm×40 cm×45 cm) were dedicated the feeding behavior assessment. Two fish were housed in each tank with two feeding bars per tank. […] The water in each tank was aerated 24 h a day and the fish were fed the control diet under the above conditions for one week prior to the study. To evaluate preference, the control and test diets were each placed on one of the two bars in each tank.

[5] = test system: E. coli; assay: E. coli colony counts over time in soy broth at pH 4 or 7.3 (Example 5); type: cell-based; conditions: FIG. 5
Protocol: The cultures were incubated, and colony counts performed at increasing times.

[6] = test system: mold; assay: Mold growth in starter mash by CO2 formation in headspace (Examples 7, 8); conditions: basal diet 85.2% dry matter; 2.0, 1.5 and 1.0 lb/ton; FIG. 12
Protocol: Fungal growth in basal starter mash was studied in compositions supplemented with DLM or Alimet® as the methionine source. Total microbial growth was monitored by measuring carbon dioxide (CO2) formation in sealed vessels at 28° C. over time.
The technique of using a closed system and measuring CO2 formation has been verified as an approximation of the conditions found in grain storage bins. See, e.g., Muir et al., Trans. ASAE, 28(5) 1673-1675 (1985), the contents of which are hereby incorporated by reference in their entirety.
A mash starter mash feed (formulation shown in Table 9, below) was subdivided into three groups: basal (control), 0.2% DLM, or 0.2% Alimet®. The feed studied had no commercial mold inhibitors added, and is representative of a typical broiler feed.
Initial moisture of the feed was 10.8%. After the addition of Alimet® or DLM, the moisture of the samples was adjusted by the addition of 2%, 4%, or 6% sterile distilled water to promote mold growth, achieving three moisture groups: […].
For each study, four replicate samples of each moisture group were mixed, and 600 g of the mixture was placed into 1 L containers, sealed, and placed at 28° C. in a temperature-controlled room. Draeger Detector tubes (CO2-measuring, obtained from Fisher Scientific) were used to measure the developed CO2 at different days following vessel sealing (two measurements were made per week). Draeger Short-Term Detector Tubes are glass tubes filled with inert carrier and an indicating reagent. The reagent produces a colorimetric indication in the presence of a particular gas (CO2). The concentration of gas is read directly from the discoloration on the tube's printed scale.
The specific mold species present were not identified. Statistical analysis was accomplished by using Duncan's multiple range test (SAS). Different letters on individual time points in FIGS. 9-11 indicate statistical differences of P<0.05.
The experiment described above in Example 7 was repeated with blends of 2.0 lb/ton, 1.5 lb/ton, 1.0 lb/ton or 0.5 lb/ton of 65% propionic acid and either […]. The blends were prepared according to the matrix outlined in Table 8, below. The 65% propionic acid was buffered with ammonium hydroxide to a pH of 5.5.

[7] = Table 26, acid or formaldehyde plus Alimet
[8] = Table 38, formulations of Table 36 (g/kg)
[9] = Table 34, formulations of Table 33 (g/kg)
[10] = Table 37, formulations of Table 36 (g/kg)

`CC(O)C(=O)O` (stereo not shown) [Blend A105] was tested, and the “log cfu/mL (S. enteritidis colony counts in broth)” value ([1]; Table 25, acid plus Alimet) was 4.44 log cfu/mL.
`O=C(O)CC(O)C(=O)O` (stereo not shown) [malic, malic acid] was tested, and the “inhibitory effect on S. enteritidis” value [1] was “do not show a significant inhibitory effect”.
With `O=C(O)/C=C/C(=O)O` [fumaric, fumaric acid] the “inhibitory effect on S. enteritidis” value [1] was “do not show a significant inhibitory effect”.
With `O=C(O)/C=C/C(=O)O` [Blend A99] the “log cfu/mL (S. enteritidis colony counts in broth)” value ([1]; Table 25, acid plus Alimet) was 4.68 log cfu/mL.
For `CCCC(=O)O` [butyric, butyric acid], the Δ log ([2]; 10 g/L, vs control) was 0.7, the Δ log ([2]; 30 g/L, vs control) was 4.0 and the Δ log ([2]; 50 g/L, vs control) was 4.0.
For `Cl` [HCl, hydrochloric acid], the “log cfu/mL t = 4 h” value [3] was 7.85 log cfu/mL and the “log cfu/mL t = 24 h” value [3] was 8.34 log cfu/mL.
With `O=P(O)(O)O` [Blend A123] the “log cfu/mL (S. enteritidis colony counts in broth)” value [1, 7] was 4.68 log cfu/mL.
Work on `CCCC(=O)O` [Blend A16] yielded a log cfu/g ([2]; Table 13, blends without Alimet, control 4.7) of 2.7 log cfu/g and a Δ log reduction ([2]; Table 13, blends without Alimet, vs control) of 2.0.
`CSCCC(O)C(=O)O` (stereo not shown) [MHA, methionine hydroxy analog] gave a Bites/10 minutes ([4]; MHA 0.077 % Inclusion) of 74.39 ± 14.14 Bites/10 minutes, a Bites/10 minutes ([4]; MHA 0.154 % Inclusion) of 67.73 ± 23.18 Bites/10 minutes and a Bites/10 minutes ([4]; MHA 0.308 % Inclusion) of 63.52 ± 20.23 Bites/10 minutes. The “number of bites vs control diet” value ([4]; common carp, 10 minutes, 0.07-0.28% Alimet or 0.077-0.308% MHA in diet) was “significantly higher”.
`CC(O)C(=O)O` (stereo not shown) [lactic, lactic acid] was tested, and the “decrease of colony counts of E. coli vs hydrochloric acid” value [5] was “better than hydrochloric acid” and the “inhibitory effect on S. enteritidis” value [1] was “do not show a significant inhibitory effect”.
In the case of `O=C(O)CC(O)C(=O)O` (stereo not shown) [Blend A111], the “log cfu/mL (S. enteritidis colony counts in broth)” value ([1]; Table 25, acid plus Alimet) is reported as 5.01 log cfu/mL.
For `C=O` [Blend A129], the “log cfu/mL (S. enteritidis colony counts in broth)” value [1, 7] was −0.30 log cfu/mL.
With `CCCC(=O)O` [Blend A87] the “log cfu/mL” value [1] was 4.44 log cfu/mL.
`CCC(=O)O` [65% propionic acid, propionic acid] was tested, and the “delay of the onset of mold growth” value [6] was “about 11 days”.
`O=CO` [Blend A81] was tested, and the “log cfu/mL” value [1] was 3.93 log cfu/mL.
`O=C(O)CC(O)(CC(=O)O)C(=O)O` [Blend A93] was tested, and the “log cfu/mL” value [1] was 4.74 log cfu/mL.
In the case of `O=P(O)(O)O` [Phosphoric, phosphoric acid], the “inhibitory effect on S. enteritidis” value [1] is reported as “do not show a significant inhibitory effect”.
In the case of `CCC(=O)O` [Blend A117], the “log cfu/mL (S. enteritidis colony counts in broth)” value [1, 7] is reported as 4.34 log cfu/mL.
In the case of `CSCCC(O)C(=O)O` (stereo not shown) [Blend A207], the “Trial 1 cfu/g” value ([2]; Table 38) is reported as 0 cfu/g, the “Trial 2 cfu/g” value ([2]; Table 38) is reported as 0 cfu/g and the “Trial 3 cfu/g” value ([2]; Table 38) is reported as 0 cfu/g. For the same molecule, the “Trial 4 cfu/g” value ([2]; Table 38, Trial 4) was 0 cfu/g, the Average cfu/g [2, 8] was 0 cfu/g and the “Average Δ log” value ([2]; Table 38) was 4.2.
`CCCC(=O)O` [Blend A147] was tested, and the “Trial 1 cfu/g” value ([2]; Table 34) was 22,200 cfu/g, the “Trial 2 cfu/g” value ([2]; Table 34) was 15,400 cfu/g and the Average cfu/g [2, 9] was 18,800 cfu/g. The Average log [2, 9] was 4.3 and the “Average Δ log” value ([2]; Table 34) was 0.4.
In the case of `CCC(=O)O` [Blend A204], the “Trial 1 cfu/g” value ([2]; Table 38) is reported as 5,400 cfu/g, the “Trial 2 cfu/g” value ([2]; Table 38) is reported as 1,600 cfu/g and the Average cfu/g [2, 8] is reported as 3,500 cfu/g. The Average log [2, 8] was 3.5 and the “Average Δ log” value ([2]; Table 38) was 0.6.
With `CCC(=O)O` [propionic, propionic acid] the “inhibitory effect on S. enteritidis” value [1] was “do not show a significant inhibitory effect”.
`CCCC(=O)O` [Blend A177] was tested, and the “Trial 1 cfu/g” value ([2]; Table 37) was 5,400 cfu/g, the “Trial 2 cfu/g” value ([2]; Table 37) was 7,000 cfu/g and the “Trial 3 cfu/g” value ([2]; Table 37) was 6,600 cfu/g. For the same molecule, the Average cfu/g [2, 10] was 6,333 cfu/g, the Average log [2, 10] was 3.8 and the “Average Δ log” value ([2]; Table 37) was 0.5.
